Activity calls are given as the source filed them. The rule behind the calls is not given here.
What was measured:
MCF7 = assay: Antiproliferative activity against human MCF7 cells assessed as growth inhibition after 78 hrs by WST-1 assay; format: functional, cell-based
MDA-MB-231 = assay: Antiproliferative activity against human MDA-MB-231 cells assessed as growth inhibition after 78 hrs by WST-1 assay; format: functional, cell-based
SK-BR-3 = assay: Antiproliferative activity against human SK-BR-3 cells assessed as growth inhibition after 78 hrs by WST-1 assay; format: functional, cell-based
HCT-116 = assay: Antiproliferative activity against human HCT116 cells assessed as growth inhibition after 78 hrs by WST-1 assay; format: functional, cell-based
SW-620 = assay: Antiproliferative activity against human SW620 cells assessed as growth inhibition after 78 hrs by WST-1 assay; format: functional, cell-based
Rattus norvegicus [1] = assay: Toxicity in ip dosed F344 rat lateral thorax transplanted with dorsal skin of LEW rat assessed as concentration required for cause death; format: organism-based; conditions: in vivo
Rattus norvegicus [2] = assay: Immunosuppressive activity in F344 rat lateral thorax transplanted with dorsal skin of LEW rat assessed as increase of skin graft survival time at 1 mg/kg, ip; format: functional; conditions: route intraperitoneal
Rattus norvegicus [3] = assay: Immunosuppressive activity in F344 rat lateral thorax transplanted with dorsal skin of LEW rat assessed as increase of skin graft survival time at 3 mg/kg, ip; format: functional; conditions: route intraperitoneal
spleen = assay: Inhibition of serine palmitoyltransferase in mouse spleen cells; format: cell-based
[4] = Immunosuppressive activity in BALB/c/C57BL/6 mouse T cells assessed as inhibition of alloantigen-induced cell proliferation after 96 hrs by measuring [3H]thymidine uptake by mixed lymphocyte reaction assay; format: functional, cell-based; conditions: BALB/c/C57BL/6, T-cell
[5] = (§1) Antiproliferative activity human LNCAP-AI cells assessed as growth inhibition after 78 hrs by WST-1 assay; format: functional, cell-based
MGC-803 = assay: Antitumor activity against human MGC803 cells xenografted in nude mouse assessed as inhibition of tumor growth at 10 mg/kg for 20 days; format: functional, organism-based; parameters: dose 10 mg/kg
Mus musculus = assay: Toxicity in human MGC803 cells xenografted nude mouse at 10 mg/kg for 20 days; format: organism-based, MGC-803; parameters: dose 10 mg/kg; conditions: in vivo, 480 h
Rattus norvegicus [6] = assay: Immunosuppressive activity in rat assessed as increase of skin graft survival time at 0.1 mg/kg; format: functional
LNCAP-AI = assay: as §1; format: functional, cell-based

**Q.** With `CCCCCCCCc1ccc(CC[C@](N)(CO)COP(=O)(O)O)cc1` as the compound, how does the “growth inhibition (GI)” value (MCF7) read?
**A.** inactive

**Q.** What about the “growth inhibition (GI)” value (MDA-MB-231) of the same compound?
**A.** inactive

**Q.** And the “growth inhibition (GI)” value (SK-BR-3)?
**A.** inactive

**Q.** And the “growth inhibition (GI)” value (HCT-116)?
**A.** inactive

**Q.** And the “growth inhibition (GI)” value (SW-620)?
**A.** inactive

**Q.** For `CCCCCCCCCCCCCCC(N)(CO)CO`, which Activity (Rattus norvegicus [1]) is on record?
**A.** 10 mg/kg

**Q.** And the Time (Rattus norvegicus [2])?
**A.** 37.3 days

**Q.** And the Time (Rattus norvegicus [3])?
**A.** 45.5 days

**Q.** And the inhibition (spleen)?
**A.** inactive

**Q.** With `C/C=C/C[C@@H](C)[C@@H](O)[C@H]1C(=O)N[C@@H](CC)C(=O)N(C)CC(=O)N(C)[C@@H](CC(C)C)C(=O)N[C@@H](C(C)C)C(=O)N(C)[C@@H](CC(C)C)C(=O)N[C@@H](C)C(=O)N[C@H](C)C(=O)N(C)[C@@H](CC(C)C)C(=O)N(C)[C@@H](CC(C)C)C(=O)N(C)[C@@H](C(C)C)C(=O)N1C` [CYCLOSPORINE] as the compound, how does the Time (Rattus norvegicus [2]) read?
**A.** 7.3 days

**Q.** And the Time (Rattus norvegicus [3])?
**A.** 10.8 days

**Q.** Which Activity (Rattus norvegicus [1]) does the source give for `CCCCCCC(O)CCCCCCCCC[C@@H](O)[C@H](O)C(N)(CO)CO` (stereo partly drawn) here?
**A.** 100 mg/kg

**Q.** What about the Time (Rattus norvegicus [2]) of the same compound?
**A.** 9.2 days

**Q.** And the Time (Rattus norvegicus [3])?
**A.** 11 days

**Q.** What does the source list for `CCCCCCCCc1ccc(CCC(N)(CO)CO)cc1` [FINGOLIMOD]?
**A.** IC50 [4]: 0.0061 µM; Time (Rattus norvegicus [2]): 39.5 days; Time (Rattus norvegicus [3]): 52 days; inhibition (spleen): inactive; IC50 (MCF7; MCF7, 78 h): 5 µM; IC50 (MDA-MB-231; MDA-MB-231, 78 h): 5 µM; IC50 (SK-BR-3; SK-BR-3, 78 h): 5 µM; IC50 (HCT-116; HCT-116, 78 h): 5 µM; IC50 (SW-620; SW-620, 78 h): 5 µM; IC50 [5]: 5 µM; growth inhibition (GI) (MGC-803): Active; Activity (Mus musculus): Toxic

**Q.** Which results are given for `CCCCCCC(=O)CCCCCC/C=C/C[C@@H](O)[C@H](O)[C@@](N)(CO)C(=O)O` [MYRIOCIN]?
**A.** IC50 [4]: 0.003 µM; Activity (Rattus norvegicus [1]): 1 mg/kg; inhibition (spleen): Active; Time (Rattus norvegicus [6]): 2 days

**Q.** Which Activity (Rattus norvegicus [1]) does the source give for `CCCCCCCCCCCCCCCCCCC(N)(CO)CO` here?
**A.** 10 mg/kg

**Q.** What does the source list for `CCCCCCCCc1ccc(CC[C@](N)(/C=C/P(=O)(O)O)CO)cc1`?
**A.** growth inhibition (GI) (MCF7): inactive; growth inhibition (GI) (LNCAP-AI): inactive
